Results published in patent EP3842803A1, “CXCL14 IN POLYCYSTIC OVARY SYNDROME” (Katholieke Universiteit Leuven, priority 2019, dated 2021).

How the values were obtained:
CXCL14 mRNA expression [1] = assay: cells; format: cell-based, human; details: for effect of addition to pioglitazone on pioglitazone induction of CXCL14 mRNA expression: added to pioglitazone, 10 days across differentiation (Figure 2B)
Method: (§1) • Figure 1 • A. Baseline circulating CXCL14 concentrations in girls with polycystic ovary syndrome (PCOS, N= 52) and in healthy age-matched controls (N= 21). Data are mean + SEM. • B. Longitudinal results of CXCL14 serum concentrations in girls with PCOS who received an oral contraceptive (OC, white circles, N= 16) or low-dose spironolactone, pioglitazone and metformin (SPIOMET, black circles, N= 15). […] SGBS human pre-adipocytes were treated chronically (10 days) with pioglitazone, spironolactone or metformin alone (A) or in combination (B, C, D) at the indicated doses across the adipoipogeic differentiation process. • A, B. CXCL14 transcript levels are presented as means + SEM from 4-5 independent experiments, and are expressed relative to values from untreated control cells. • C. […] SGBS cells were treated acutely (24h, at the indicated doses) when already differentiated adipocytes.
(§2) Cell culture reagents and drugs were from Sigma.

CXCL14 mRNA expression [2] = assay: CXCL14 transcript levels (qRT-PCR) in already differentiated SGBS adipocytes treated acutely (24h); format: cell-based, human; details: acute 24h treatment; spironolactone at 10 µM (Figure 3A)
Method: as §1, §2

CXCL14 protein [3] = assay: CXCL14 protein (ELISA) in cell culture medium of differentiating SGBS cells; format: cell-based, human; details: chronic treatment across differentiation; detectable only under pioglitazone treatment
Description: as §2

CXCL14 protein [4] = details: sgbs adipocytes, 24 h
Method: as §1, §2

| Compound | effect of addition to pioglitazone on pioglitazone induction of CXCL14 mRNA expression (CXCL14 mRNA expression [1]) | CXCL14 mRNA expression on already differentiated human adipocytes (CXCL14 mRNA expression [2]) | fold induction at 0.1 µM (CXCL14 mRNA expression [1]; Homo sapiens, SGBS, 240 h, read-out: induction of CXCL14 mRNA expression) | CXCL14 protein in the cell culture medium of differentiating cells (CXCL14 protein [3]) [ng/mL] | increase of the CXCL14 protein levels released by adipocytes to the cell culture medium (CXCL14 protein [4]) [fold] |
| --- | --- | --- | --- | --- | --- |
| CN(C)C(=N)N=C(N)N [metformin] | did not modify | Neither pioglitazone nor metformin alone had any effect | – | – | – |
| CCc1ccc(CCOc2ccc(CC3SC(=O)NC3=O)cc2)nc1 (stereo not shown) [pioglitazone] | – | – | ~10 | 0.185 | – |
| CC(=O)S[C@@H]1CC2=CC(=O)CC[C@]2(C)[C@H]2CC[C@@]3(C)[C@@H](CC[C@@]34CCC(=O)O4)[C@H]12 [spironolactone] | reduced significantly | significant induction | – | – | ~8 |
